The values that follow come from publication PMC7316160 (Drug testing and analysis, 2018).

“And” between values parts separate entries of the source, which are not always exact repeats. Equal values may be shown once. Read-outs that look alike come from different tables or passages of the source.

For series [1], the target named is T1, dopamine transporter (DAT) (Rattus norvegicus, UniProt P23977). Briefly: Inhibition of [^3H]dopamine uptake at DAT in rat brain synaptosomes. It counts as biochemical. Conditions: for DAT/SERT ratio (uptake inhibition): [DAT IC50]^−1/[SERT IC50]^−1, higher value indicates greater DAT selectivity.
T1 sequence (P23977 whole entry): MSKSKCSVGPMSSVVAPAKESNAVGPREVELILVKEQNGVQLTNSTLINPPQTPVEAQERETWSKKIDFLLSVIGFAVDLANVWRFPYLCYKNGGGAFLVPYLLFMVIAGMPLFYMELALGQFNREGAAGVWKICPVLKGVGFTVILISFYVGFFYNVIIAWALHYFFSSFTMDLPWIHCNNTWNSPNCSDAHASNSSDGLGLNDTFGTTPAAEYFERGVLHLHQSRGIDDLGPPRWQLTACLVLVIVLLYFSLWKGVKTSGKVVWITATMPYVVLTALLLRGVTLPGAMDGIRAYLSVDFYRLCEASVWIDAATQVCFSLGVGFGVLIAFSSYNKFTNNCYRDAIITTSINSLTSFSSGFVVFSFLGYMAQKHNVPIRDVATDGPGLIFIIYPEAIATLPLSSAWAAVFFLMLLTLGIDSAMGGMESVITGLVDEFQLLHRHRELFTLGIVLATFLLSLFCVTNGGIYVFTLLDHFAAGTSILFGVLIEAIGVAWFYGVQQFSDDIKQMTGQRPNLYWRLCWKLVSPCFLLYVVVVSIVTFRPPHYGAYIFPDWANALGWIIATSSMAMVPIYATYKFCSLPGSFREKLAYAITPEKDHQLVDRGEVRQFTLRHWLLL
Series [2] has as its target T1, dopamine transporter (DAT). As to the kind of experiment: Release of [^3H]MPP+ via DAT from rat brain synaptosomes. It counts as biochemical. Conditions: for Release of [^3H]MPP+ via DAT EC50: rat brain synaptosomes, mean ± SD, n=3.
The target in series [3] is T2, norepinephrine transporter (NET) (Rattus norvegicus, UniProt Q63380). Briefly: Release of [^3H]MPP+ via NET from rat brain synaptosomes. It counts as biochemical. Conditions: for Release of [^3H]MPP+ via NET EC50: rat brain synaptosomes, mean ± SD, n=3.
T2 sequence (Q63380 1-617): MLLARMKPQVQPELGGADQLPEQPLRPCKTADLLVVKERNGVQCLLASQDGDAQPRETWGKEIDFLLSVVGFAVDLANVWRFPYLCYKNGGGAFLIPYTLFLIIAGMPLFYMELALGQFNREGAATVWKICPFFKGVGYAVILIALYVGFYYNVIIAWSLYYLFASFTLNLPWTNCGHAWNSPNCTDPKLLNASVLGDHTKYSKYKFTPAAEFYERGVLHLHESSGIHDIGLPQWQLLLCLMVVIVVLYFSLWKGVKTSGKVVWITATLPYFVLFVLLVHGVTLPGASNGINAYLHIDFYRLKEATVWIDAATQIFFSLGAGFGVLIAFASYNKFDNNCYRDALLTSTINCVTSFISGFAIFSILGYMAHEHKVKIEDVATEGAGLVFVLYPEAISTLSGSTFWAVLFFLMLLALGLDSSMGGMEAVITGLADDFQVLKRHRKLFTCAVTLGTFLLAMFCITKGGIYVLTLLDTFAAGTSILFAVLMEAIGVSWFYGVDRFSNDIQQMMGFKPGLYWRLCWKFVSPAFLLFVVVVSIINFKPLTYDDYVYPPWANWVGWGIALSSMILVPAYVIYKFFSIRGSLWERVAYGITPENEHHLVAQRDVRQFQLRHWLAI
In a further series the target is 5-HT transporter (SERT) (Rattus norvegicus, UniProt P31652). As to the kind of experiment: Release of [^3H]5-HT via SERT from rat brain synaptosomes. Conditions: for Release of [^3H]5-HT via SERT EC50: rat brain synaptosomes, mean ± SD, n=3; for Emax: read-out: Release of [^3H]5-HT via SERT %Emax. It counts as biochemical.
5-HT transporter (SERT), sequence (P31652 whole entry): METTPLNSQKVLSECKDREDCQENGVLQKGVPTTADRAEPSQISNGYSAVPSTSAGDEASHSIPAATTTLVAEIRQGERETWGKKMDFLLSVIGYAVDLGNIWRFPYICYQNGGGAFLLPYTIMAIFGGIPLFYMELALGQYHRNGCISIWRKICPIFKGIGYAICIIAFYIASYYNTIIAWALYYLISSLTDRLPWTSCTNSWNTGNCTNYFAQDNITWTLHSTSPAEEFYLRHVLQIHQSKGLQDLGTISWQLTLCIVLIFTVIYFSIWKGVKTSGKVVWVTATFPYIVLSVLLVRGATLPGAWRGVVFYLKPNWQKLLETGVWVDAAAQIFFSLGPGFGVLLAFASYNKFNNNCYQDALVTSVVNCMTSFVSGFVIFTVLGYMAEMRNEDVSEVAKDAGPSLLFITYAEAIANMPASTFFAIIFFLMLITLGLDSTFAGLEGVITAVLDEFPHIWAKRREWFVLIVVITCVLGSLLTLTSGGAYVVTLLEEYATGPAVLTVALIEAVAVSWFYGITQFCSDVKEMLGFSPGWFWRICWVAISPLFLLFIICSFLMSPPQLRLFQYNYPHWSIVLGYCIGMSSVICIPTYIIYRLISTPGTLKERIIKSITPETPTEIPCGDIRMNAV
Series [4] is described as follows: Stability in whole blood on storage. It counts as physicochemical, human. Conditions: for long-term stability, variation of initial concentration: 90 days; for Stability (% difference): whole blood, n=3.
A short description of series [5]: LC-MS/MS quantification in blood/serum of human intoxication cases. It counts as in vivo.
Series [6] is classed as in vivo, human. Conditions: for Potassium: reference 3.3 - 5.1; for aspartame aminotransferase: reference 10 - 40; for alanine aminotransferase: reference 12 - 78; for BUN: reference 15 - 39; for Sodium: reference 136 - 145; for pH: reference 7.35 - 7.45; for HCO3: reference 22 - 26; for pCO2: reference 35 - 45; for Glucose: reference 70 - 100; for pO2: reference 80 - 100; for serum creatinine: reference Male 0.8 - 1.3; for Hb: reference Male 13.2 - 18.0; for Hematocrit: reference Male 39.0 - 51.0; for creatine kinase: reference Male 39 - 308; for base excess: reference −2 - +2.

The target in series [7] is T2, norepinephrine transporter (NET). Briefly: Inhibition of [^3H]norepinephrine uptake at NET in rat brain synaptosomes. It counts as biochemical. Conditions: approximate value.
Setting [8] is: Inhibition of [^3H]dopamine Uptake at DAT IC50, rat brain synaptosomes (caudate), mean ± SD, n=3.
The mark [9] stands for this setting: Case 4, co-exposure alcohol, MDMA and N-ethylnorpentylone.

On to `CCCC(NCC)C(=O)c1ccc2c(c1)OCO2` (stereo not drawn) [N-ethylnorpentylone, 1-(1,3-benzodioxol-5-yl)-2-(ethylamino)pentan-1-one], for which half-maximal inhibition in series [1] (setting [8]) (IC50) required 37 ± 2 nM. Further, the “DAT/SERT ratio (uptake inhibition)” value in series [1] is listed as greater than 10. Also, the “Release of [^3H]MPP+ via DAT EC50” value in series [2] was “unable to evoke release”; in series [2] (listed as N-EthylNorpentylone), “inactive”; in series [2] (listed as N-Ethylnorpentylone), “no transporter releasing activity”. In addition, the “Release of [^3H]MPP+ via NET EC50” value was “unable to evoke release” in series [3], “inactive” in series [3] (listed as N-EthylNorpentylone) and “no transporter releasing activity” in series [3] (listed as N-Ethylnorpentylone). In addition, the “Release of [^3H]5-HT via SERT EC50” value was “unable to evoke release” at 5-HT transporter (SERT), “inactive” on 5-HT transporter (SERT) (listed as N-EthylNorpentylone) and “no transporter releasing activity” on 5-HT transporter (SERT) (listed as N-Ethylnorpentylone). The “long-term stability, variation of initial concentration” value in series [4] (fortified whole blood, both QC concentrations, 4 °C) was −3.5%; in series [4] (fortified whole blood, both QC concentrations, −20 °C) it was “+6.5%”; in series [4] (post mortem blood sample, 4 °C), −19.7%; in series [4] (post mortem blood sample, −20 °C), −5.5%. In addition, the “Stability (% difference)” value in series [4] (High QC (400 ng/mL), 3 freeze-thaw cycles) was −3.0%; in series [4] (High QC (400 ng/mL), 4 °C, 24h) it was 7.1%; in series [4] (High QC (400 ng/mL), 4 °C, 72h), 5.9%; in series [4] (High QC (400 ng/mL), −20 °C, 24h), −3.3%; in series [4] (High QC (400 ng/mL), −20 °C, 72h), −2.9%; in series [4] (Low QC (15 ng/mL), 3 freeze-thaw cycles) it was −11.8%. Moreover, the “Stability (% difference)” value in series [4] (Low QC (15 ng/mL), 4 °C, 24h) is recorded as −2.4%; in series [4] (Low QC (15 ng/mL), 4 °C, 72h), −4.9%; in series [4] (Low QC (15 ng/mL), −20 °C, 24h), −1.8%; in series [4] (Low QC (15 ng/mL), −20 °C, 72h), −12.6%. For the same compound, the “post mortem whole blood concentration” value in series [5] (Case 1, fatal, only psychoactive analyte detected) is listed as 170 ng/mL. Further, the serum concentration is given as 7 ng/mL in series [5] (Case 2, recovered by 12 h); 19 ng/mL in series [5] (setting [9]); 149 ng/mL in series [5] (Case 5, coma, cerebrovascular hemorrhage); 61 ng/mL in series [5] (Case 6, psychosis). Also, the “symptoms of intoxicated subjects” value in series [6] (6 human cases) is recorded as “palpitations, tachycardia, agitation, aggression, hallucinations, coma and, in one case, death”. The “heart rate (tachycardia)” value in series [6] (Case 2, at ED) was 176 bpm. Moreover, the Potassium came to 3.6 mEq/L in series [6] (Case 3), 3.4 mEq/L in series [6] (Case 4), 3.7 mEq/L in series [6] (Case 5) and 3.8 mEq/L in series [6] (Case 6). The aspartame aminotransferase in series [6] (Case 3) is listed as 93 U/L; in series [6] (Case 4) it was 40 U/L; in series [6] (Case 6) it was 24 U/L. Further, the alanine aminotransferase stood at 35 U/L in series [6] (Case 3), 25 U/L in series [6] (Case 4) and 27 U/L in series [6] (Case 6). Also, the BUN is 14 mg/dL in series [6] (Case 3), 14 mg/dL in series [6] (Case 4), 28 mg/dL in series [6] (Case 5) and 31 mg/dL in series [6] (Case 6). Further, the Sodium in series [6] (Case 3) is listed as 140 mEq/L; in series [6] (Case 4), 137 mEq/L; in series [6] (Case 5), 137 mEq/L; in series [6] (Case 6) it was 137 mEq/L. The compound also yielded a phosphatase alkaline in series [6] (Case 3, reference Adult 50 - 136) of 53 U/L. Further, the blood pressure in series [6] (Case 4, described as normal) is 123/89. The “creatine kinase MB isoenzyme” value in series [6] (Case 4, reference 7 - 25) was 21 U/L. Further, the values for the pH in series [6] (Case 4) and in series [6] (Case 5) were 7.46 and 7.41, respectively. Moreover, the values for the HCO3 in series [6] (Case 4) and in series [6] (Case 5) were 20.5 mmol/L and 19 mmol/L, respectively. Moreover, the results for the pCO2 in series [6] (Case 4) and in series [6] (Case 5) were 29.4 mmHg and 31 mmHg, respectively. In addition, the Glucose in series [6] (Case 4) is 104 mg/dL; in series [6] (Case 6), 101 mg/dL. Also, the pO2 in series [6] (Case 4) is listed as 72.5 mmHg; in series [6] (Case 5), 86 mmHg. Further, the serum creatinine is 0.9 mg/dL in series [6] (Case 4), 0.7 mg/dL in series [6] (Case 5) and 0.7 mg/dL in series [6] (Case 6). Also, the Hb came out at 15.5 g/dL in series [6] (Case 4), 13.0 g/dL in series [6] (Case 5) and 13.0 g/dL in series [6] (Case 6). The figures for the Hematocrit in series [6] (Case 4), in series [6] (Case 5) and in series [6] (Case 6) were 43.0%, 43.0% and 39.9%, respectively. For the same compound, the creatine kinase in series [6] (Case 4) is listed as 605 U/L; in series [6] (Case 5), 1,260 U/L; in series [6] (Case 6) it was 713 U/L. Further, the base excess was -1.6 mmol/L in series [6] (Case 4) and -3.8 mmol/L in series [6] (Case 5). In series [6] (Case 5), the “Glasgow score (neurological depression)” value is 5. The Lactate in series [6] (Case 5, reference 0.5 - 1.6) stood at 11.0 mmol/L. Further, the Magnesium in series [6] (Case 5, reference 1.6 - 2.4) is given as 1.6 mg/dL.

Turning to `CNC(C)C(=O)c1ccc2c(c1)OCO2` (stereo not drawn) [Methylone, 3,4-methylenedioxy-N-methylcathinone], the IC50 (as a rule, the concentration needed to halve the response being measured) in series [1] (setting [8]) is 1390 ± 81 nM; in series [1] (uptake inhibition at DAT IC50, rat brain synaptosomes, approximate value), roughly 1000 nM; in series [7], roughly 1000 nM. Besides, the “DAT/SERT ratio (uptake inhibition)” value in series [1] is 0.83 and 0.8. Also, the EC50 (in general, the concentration giving half of the maximal effect) worked out at 178 ± 17 nM in series [2], 81 ± 8 nM in series [3] and 342 ± 20 nM on 5-HT transporter (SERT). Further, the “DAT/SERT ratio (release)” value in series [2] ([DAT EC50]^−1/[SERT EC50]^−1, higher value indicates greater DAT selectivity) worked out at 1.9. Besides, the Emax – broadly, the size of the effect at its maximum, as opposed to the concentration needed – was 96% in series [2] (read-out: Release of [^3H]MPP+ via DAT %Emax), 94% in series [3] (read-out: Release of [^3H]MPP+ via NET %Emax) and 99% at 5-HT transporter (SERT).

On to `CCO` [alcohol], for which the serum concentration in series [5] (Case 4) amounted to 800000 ng/mL.

`CCCC(NC)C(=O)c1ccc2c(c1)OCO2` (stereo not drawn) [Pentylone, 1-(1,3-benzodioxol-5-yl)-2-(methylamino)pentan-1-one] yielded an IC50 in series [1] (setting [8]) of 154 ± 11 nM. Besides, the “DAT/SERT ratio (uptake inhibition)” value in series [1] was 7.8. In series [2], the “Release of [^3H]MPP+ via DAT EC50” value is “inactive”. Moreover, the “Release of [^3H]MPP+ via NET EC50” value in series [3] is on record as “Inactive”. Besides, at 5-HT transporter (SERT), the EC50 came to 476 ± 98 nM and the Emax was 54%.

For the compound `CNC(C)Cc1ccc2c(c1)OCO2` (stereo not drawn) [MDMA, 3,4-methylenedioxymethamphetamine], the serum concentration in series [5] (setting [9]) stood at 54 ng/mL.
